Measured values: patent US6864245B2, “Biocompatible poly-β-1→4-N-acetylglucosamine” (priority 1993, dated 2005)
Values joined by “and” are separate entries in the source; they are usually repeats but may differ in a detail not shown here. Equal values may be shown once. Read-outs that look alike come from different tables or passages of the source.

System: HT29 colon tumors
Conditions: Intravenous Injection, daily

## O=c1[nH]cc(F)c(=O)[nH]1 [5′-FU, 5′-fluorouracil]
High Dose
  % Change: −67.0%
  Comments (death): Died day 13
  Tumor Volume Post-treatment: 132 mm^3
  Tumor Volume Pre-Treatment: 402 mm^3
Low Dose
  Comments (death): Died day 13
  Tumor Volume Post-treatment: 703 mm^3 and 402 mm^3
  Tumor Volume Pre-Treatment: 402 mm^3
